Data: patent publication EP0284180A1, “Prostaglandins E and anti ulcers containing same” (Kabushiki Kaisha Ueno Seiyaku Oyo Kenkyujo, priority 1987, dated 1988)
Read-outs that look alike come from different tables or passages of the source. Each block holds one molecule with its values, some of them ahead of it.

Experiments:
[1] = tested on: confinement-stress induced ulcers through immersion in water; assay: Confinement-stress induced ulcers through immersion in water (hydrorestraint stress ulcer preventing effect); assay type: in vivo, male rats of the Crj : Wistar strain; settings: for inhibition at 1 mg/kg: dosage 1 mg/kg; for inhibition at 5 mg/kg: dosage 5 mg/kg; for inhibition at 3 mg/kg: dosage 3 mg/kg; for inhibition at 10 mg/kg: dosage 10 mg/kg; for inhibition at 0.3 mg/kg: dosage 0.3 mg/kg; for ulcer inhibiting effect: conclusion in words from Table 3
Description: (§1) As test samples, we used the PGE as obtained in Examples 2 to 52 as described herein, 13,14-dihydro-15-keto-PGE2 (produced by Funakoshi & Co.) being employed as a control reference.
(§2) Each group of test animals used consisted of 8 to 10 male rats of the Crj : Wistar strain, weighing 180 to 230 g. Test animals were fasted for 24 hours before the oral administration of the test samples; in the case of development of confinement-stress induced ulcers through immersion in water, 10 minutes after oral administration of the test specimens, the aminals were confined in a stress cage developed by Univ. of Tokyo, then immersed up to the ensiform process of sternum in water at 23°C for 4 hours and sacrificed; in the case of formation of indomethacin-induced ulcers, shortly after the materials were given, animals were given indomethacin orally at a dose of 10 mg/kg and sacrificed after 5 hours.
(§3) The stomacks were taken out, followed by fixation with 1 % formalin, and incised along the greater curvature to carry out investigation under an illuminated magnifier for ulceration. The degree and extent of lesion and ulcer were rated based on the ulceration index being classified into the following five numerical categories: • 0: normal, with no lesion detected; • 1: bleeding or erosion of mucosa; • 2: development of less than 5 small ulcers (not greater than 2 mm in diameter); • 3: generation of not less than 5 small ulcers or a large ulcer (not less than 2 mm in diameter); • 4: generation of not less than 2 large ulcers.
(§4) On the basis of the criteria that the rats with the ulceration index of not less than "2", the ulcer inhibition rate (EDso) was calculated from ulcer-generation ratio in the control and the ratio of the test specimens.

[2] = tested on: ileum; assay: Intestinal constriction effect, isolated ileum in Magnus tube; design: species or system male Wister rat; settings: rat ileum, constriction relative to acetylcholine, ED50 class
Description: A male Wister rat (of 250 - 300g in weight) was struck to death, and immediately its carotid artery was cut to dehematize. An ileum portion located about 10 cm from the cecum was extracted, and after its contents were washed away with a Tyrode liquid, a 1.5 - 2 cm long part of it was cut off and hung in a Magnus tube.
The constriction of the ileum was brought to rest for 15 - 20 minutes until the ileum was allowed to be stabilized, and subsequently the ileum was constricted with […]/mt of acetylcholine. After constructions of same magnitude were had two times, the material to be tested was cumulatively administered at one- minute intervals.
Constrictions with the material tested were expressed in terms of ratios, based on constriction per 10 g/m t of acetylcholine, and values for ED50 were determined. + : EDso < 10^-6 M ±: 10^-4 M ≦ ED50 ≦ 10^-6 M -: 10^-4 M < ED50

[3] = tested on: trachea; assay: Tracheal relaxation, isolated tracheal rings constricted with histamine; design: species or system male gunea pig; settings: guinea pig trachea, inhibition of constriction under histamine 5.4 x 10^-4 M, IC50 class, read-out: Tracheal relaxation effect
Description: A male gunea pig (of about 300 g in weight) was struck to death, and its artery was cut to dehematize. Its trachea, after having been extracted, was cut open lengthwise on the opposite side to the trachea smooth muscle, and seven tracheal rings were connected by string in a chain-like pattern, same being hung in a Magnus tube.
Trachea was brought to rest for 60 - 90 minutes and until tracheal equilibrium was reached. Thereafter, 5.4 x 10 ^-4 M of histamine was administered in such manner that it was cumulatively administered at 6 minutes' intervals after a constriction peak was reached. Tracheal relaxation with the material tested was expressed in terms of ratio of constrictional inhibition under histamine administering, and values for IC50 were determined. + : IC50 < 10^-7 M ± : 10^-5 M ≦ IC50 ≦ 10^-7 M -: 10^-5 M < IC50

[4] = tested on: uterus; assay: Uterine constriction, isolated uterus in Magnus tube; design: species or system female rat; settings: rat uterus, constriction relative to 1 mU oxytocin = 100, EC50 class; read-out: Uterus constriction effect
Description: A female rat (of 150g in weight) was dehematized to death, and its uterus was taken out, which was cut to a length of 1.5 - 2.5 cm. The cut uterus was hung in a magnus tube. The uterus was constricted several times with 1 mU Oxytocin. After stable uterine movement was obtained, the material to be tested was independently administered. Constrictions with the material were expressed in terms of ratios based on constriction of 1 mU of oxytocin = 100, and values of EC50 were determined on the following standards. +:EC50 < 10^-7 M ±:10^-5 M ≦ EC50 ≦ 10^-7 M -: 10^-5 M < ECso

[5] = tested on: indomethacin-induced ulcers; assay: Indomethacin-induced ulcers (indomethacin ulcer preventing effect); assay type: in vivo, male rats of the Crj : Wistar strain; settings: rats; for ED50: ulcer inhibition rate (Table 2); for Ulcer index (aver. ± SE): indomethacin 10 mg/kg oral ulcer, index 0-4
Description: as §1, §2, §3, §4

[6] = Rattus norvegicus, stress ulcer, rats, oral, read-out: Inhibition factor (%)
[7] = Rattus norvegicus, stress ulcer, rats, oral, ulcer inhibition rate, ulceration index not less than 2 counted (Table 1), read-out: ED50
[8] = Rattus norvegicus, po, hydrorestraint stress-ulcer preventing effect, procedure of Test Example 1 (Table 3), read-out: Ulcer inhibiting effect ED50
[9] = Rattus norvegicus, indomethacin ulcer, oral, dosage 20 mg/kg, read-out: Inhibition factor (%)
[10] = Rattus norvegicus, indomethacin ulcer, oral
[11] = Rattus norvegicus, indomethacin ulcer, oral, dosage 3 mg/kg, read-out: Inhibition factor (%)
[12] = Rattus norvegicus, indomethacin ulcer, oral, dosage 10 mg/kg, read-out: Inhibition factor (%)
[13] = Rattus norvegicus, indomethacin ulcer, oral, dosage 1 mg/kg, read-out: Inhibition factor (%)

SMILES: CCCCCC(=O)CC[C@H]1[C@H](O)CC(=O)[C@@H]1C/C=C\CCCC(=O)OC(C)C [(5)]
- inhibition at 1 mg/kg [1, 6]: 14.3%
- inhibition at 5 mg/kg [1, 6]: 44%
- ED50 [1, 7]: 6.5 mg/kg

SMILES: CCCCCC(=O)CC[C@H]1[C@H](O)CC(=O)[C@@H]1CCCCCCC(=O)OC [(6)]
- inhibition at 3 mg/kg [1, 6]: 28%
- inhibition at 10 mg/kg [1, 6]: 72.2%
- ED50 [1, 7]: 5.5 mg/kg

- EC50 [2]: < 1 µM
- IC50 [3]: < 100 nM
- EC50 [4]: 0.1 to 10 µM
SMILES: CCCCC[C@H](O)/C=C/[C@H]1[C@H](O)CC(=O)[C@@H]1C/C=C\CCCC(=O)OCC [B]
- ED50 [1, 8]: 0.4 mg/kg

SMILES: CCCCCC(=O)CC[C@H]1[C@H](O)CC(=O)[C@@H]1C/C=C\CCCC(=O)O [(1)]
- inhibition at 20 mg/kg ([1]; Rattus norvegicus, stress ulcer, rats, oral, dosage 20 mg/kg, read-out: Inhibition factor (%)): 6.3%
- ED50 [1, 7]: > 20 mg/kg
- inhibition at 20 mg/kg [5, 9]: 4%
- ED50 [5, 10]: > 20 mg/kg
- Ulcer index (aver. ± SE) ([5]; dosage 20 mg/kg): 2.4±0.4

SMILES: CCCCCC(=O)CC[C@H]1[C@H](O)CC(=O)[C@@H]1C/C=C\CCCC(=O)OC [(2)]
- inhibition at 5 mg/kg [1, 6]: 58.3%
- inhibition at 15 mg/kg ([1]; Rattus norvegicus, stress ulcer, rats, oral, dosage 15 mg/kg, read-out: Inhibition factor (%)): 87.5%
- ED50 [1, 7]: 4 mg/kg
- inhibition at 3 mg/kg [5, 11]: 30%
- inhibition at 6 mg/kg ([5]; Rattus norvegicus, indomethacin ulcer, oral, dosage 6 mg/kg, read-out: Inhibition factor (%)): 50%
- inhibition at 20 mg/kg [5, 9]: 100%
- ED50 [5, 10]: 6 mg/kg
- Ulcer index (aver. ± SE) ([5]; dosage 3 mg/kg): 1.9±0.4
- Ulcer index (aver. ± SE) ([5]; dosage 6 mg/kg): 1.4±0.3
- Ulcer index (aver. ± SE) ([5]; dosage 20 mg/kg): 0.4±0.2

- EC50 [2]: < 1 µM
- IC50 [3]: < 100 nM
- EC50 [4]: < 0.1 µM
SMILES: CCCCC[C@H](O)/C=C/[C@H]1[C@H](O)CC(=O)[C@@H]1C/C=C\CCCC(=O)O [A]
- ED50 [1, 8]: 0.5 mg/kg

SMILES: CCCCCC(=O)CC[C@H]1[C@H](O)CC(=O)[C@@H]1CCCCCCC(=O)OCC [(7)]
- inhibition at 3 mg/kg [1, 6]: 37.5%
- inhibition at 10 mg/kg [1, 6]: 75%
- ED50 [1, 7]: 4.5 mg/kg

SMILES: CCCCCC(=O)CC[C@H]1[C@H](C)CC(=O)[C@@H]1CC(=O)CCCCC(=O)OC [(38)]
- inhibition at 0.3 mg/kg [1, 6]: 8.1%
- inhibition at 1 mg/kg [1, 6]: 45.9%
- inhibition at 3 mg/kg [1, 6]: 79.7%
- ED50 [1, 7]: 1.5 mg/kg

SMILES: CCCCCC(=O)CC[C@H]1[C@H](O)CC(=O)[C@@H]1C/C=C\CCCC(=O)OCCC [(4)]
- inhibition at 1 mg/kg [1, 6]: 16.7%
- inhibition at 5 mg/kg [1, 6]: 44.4%
- ED50 [1, 7]: 7 mg/kg

SMILES: CCCCCC(=O)CC[C@H]1[C@H](C)CC(=O)[C@@H]1CC(=O)CCCCC(=O)OCC [(39)]
- inhibition at 0.3 mg/kg [1, 6]: 30.2%
- inhibition at 1 mg/kg [1, 6]: 77.5%
- inhibition at 3 mg/kg [1, 6]: 85.3%
- ED50 [1, 7]: 0.5 mg/kg

SMILES: CCCCCC(=O)CC[C@H]1[C@H](O)CC(=O)[C@@H]1CC(=O)CCCCC(=O)OCC (racemic) [(11)]
- inhibition at 1 mg/kg [1, 6]: 25%
- inhibition at 3 mg/kg [1, 6]: 57.1%
- inhibition at 10 mg/kg [1, 6]: 85.7%
- ED50 [1, 7]: 2.4 mg/kg
- inhibition at 3 mg/kg [5, 11]: 0%
- inhibition at 10 mg/kg [5, 12]: 50%
- ED50 [5, 10]: 10 mg/kg
- Ulcer index (aver. ± SE) ([5]; dosage 3 mg/kg): 2.6±0.3
- Ulcer index (aver. ± SE) ([5]; dosage 10 mg/kg): 2.0±0.2

SMILES: CCCCCCC(=O)CC[C@H]1[C@H](O)CC(=O)[C@@H]1CC(=O)CCCCC(=O)OCC [(37)]
- inhibition at 1 mg/kg [1, 6]: 8.1%
- inhibition at 3 mg/kg [1, 6]: 45.9%
- inhibition at 6 mg/kg ([1]; Rattus norvegicus, stress ulcer, rats, oral, dosage 6 mg/kg, read-out: Inhibition factor (%)): 79.7%
- ED50 [1, 7]: 3 mg/kg

SMILES: CCCCCC(=O)CC[C@H]1[C@H](O)CC(=O)[C@@H]1C/C=C\CCCC(=O)OCC [(3)]
- inhibition at 1 mg/kg [1, 6]: 25%
- inhibition at 3 mg/kg [1, 6]: 86.1%
- inhibition at 10 mg/kg [1, 6]: 100%
- ED50 [1, 7]: 1.5 mg/kg
- inhibition at 3 mg/kg [5, 11]: 42.9%
- inhibition at 10 mg/kg [5, 12]: 71.4%
- ED50 [5, 10]: 4.4 mg/kg
- Ulcer index (aver. ± SE) ([5]; dosage 3 mg/kg): 1.7±0.4
- Ulcer index (aver. ± SE) ([5]; dosage 10 mg/kg): 1.0±0.3

SMILES: CCCCCC(=O)CC[C@H]1[C@H](O)CC(=O)[C@@H]1CC(=O)CCCCC(=O)OCC [(9)]
- inhibition at 0.3 mg/kg [1, 6]: 37.5%
- inhibition at 1 mg/kg [1, 6]: 75%
- ED50 [1, 7]: 0.45 mg/kg
- inhibition at 1 mg/kg [5, 13]: 37.5%
- inhibition at 3 mg/kg [5, 11]: 50.5%
- ED50 [5, 10]: 3 mg/kg
- Ulcer index (aver. ± SE) ([5]; dosage 1 mg/kg): 2.1±0.3
- Ulcer index (aver. ± SE) ([5]; dosage 3 mg/kg): 1.5±0.3

SMILES: CCOC(=O)CCCCC(=O)C[C@H]1C(=O)C[C@@H](O)[C@@H]1CCC(=O)CCCC(C)C [(36)]
- inhibition at 0.3 mg/kg [1, 6]: 22.6%
- inhibition at 1 mg/kg [1, 6]: 57%
- ED50 [1, 7]: 0.8 mg/kg

SMILES: CCCCCC(=O)CC[C@H]1[C@H](O)CC(=O)[C@@H]1CC(=O)CCCCC(=O)OC [(8)]
- inhibition at 0.3 mg/kg [1, 6]: 30.6%
- inhibition at 1 mg/kg [1, 6]: 62.5%
- ED50 [1, 7]: 0.6 mg/kg
- inhibition at 1 mg/kg [5, 13]: 14.3%
- inhibition at 3 mg/kg [5, 11]: 42.9%
- ED50 [5, 10]: 3.8 mg/kg
- Ulcer index (aver. ± SE) ([5]; dosage 1 mg/kg): 2.3±0.4
- Ulcer index (aver. ± SE) ([5]; dosage 3 mg/kg): 1.7±0.3

- EC50 [2]: > 100 µM
- IC50 [3]: > 10000 nM
- EC50 [4]: > 10 µM
SMILES: CCCCCC(=O)CC[C@H]1[C@H](O)CC(=O)[C@@H]1C/C=C\CCCC(=O)OCC [Material (3), 13, 14-dihydro-15-keto-PGE2 ethyl ester]
- ED50 [1, 8]: 1.5 mg/kg
- ulcer inhibiting effect [1]: a high degree of ulcer inhibiting effect

SMILES: CCCCCC(=O)CC[C@H]1[C@H](O)CC(=O)[C@@H]1CC(=O)CCCCC(=O)OCCCC [(10)]
- inhibition at 1 mg/kg [1, 6]: 25.5%
- inhibition at 3 mg/kg [1, 6]: 78.4%
- ED50 [1, 7]: 1.5 mg/kg

- EC50 [2]: > 100 µM
- IC50 ([3]; Cavia porcellus): 100 to 10000 nM
- EC50 [4]: 0.1 to 10 µM
SMILES: CCCCCC(=O)CC[C@H]1[C@H](O)CC(=O)[C@@H]1C/C=C\CCCC(=O)O [Material (1), 13, 14-dihydro-15-keto-PGE2, reference compound]
- ED50 [1, 8]: > 20 mg/kg
- ulcer inhibiting effect [1]: no pharmacological or physiological effect
- antiulcerative effect ([1]; conclusion in words from Tables 1 and 2): no antiulcerative effect
